Values after ≈ are worked out from the molar mass of the structure shown.
Columns and labels:
[1] = tested on: T1, α-glucosidase; assay: intrinsic fluorescence quenching, excitation […] nm; assay type: binding, Saccharomyces cerevisiae; details: 298 K, double-log
T1 construct: gene MAL12; docking used PDB 3A4A (isomaltase IMA1), not the tested protein

[2] = molecular target: T1, α-glucosidase; assay: pNP-G hydrolysis, absorbance […] nm; assay type: biochemical, Saccharomyces cerevisiae; details: pNP-G (1 mM stock, 1 mL added), 0.1 M phosphate pH 6.8, 37 °C, 10 min preincubation

Structure (SMILES): O=c1c(O)c(-c2cc(O)c(O)c(O)c2)oc2cc(O)cc(O)c12 [compound 1, myricetin]
- Ka ([1]; n = 0.9843): 77786 L/mol
- IC50 [2]: 2.09 µg/mL (≈ 6.57 µM)

Structure (SMILES): O=c1c(O)c(-c2ccc(O)c(O)c2)oc2cc(O)ccc12 [compound 2, fisetin]
- IC50 [2]: 5.50 µg/mL (≈ 19.2 µM)

Structure (SMILES): O=c1cc(-c2ccccc2)oc2cc(O)c(O)c(O)c12 [compound 4, baicalein]
- IC50 [2]: 6.75 µg/mL (≈ 25 µM)

Structure (SMILES): O=c1cc(-c2ccc(O)c(O)c2)oc2cc(O)cc(O)c12 [compound 5, luteolin]
- IC50 [2]: 27.22 µg/mL (≈ 95.1 µM)

Structure (SMILES): O=C(/C=C/c1ccc(O)cc1)c1ccc(O)cc1O [compound 6, isoliquiritigenin]
- IC50 [2]: 36.29 µg/mL (≈ 142 µM)

Structure (SMILES): O=c1cc(-c2ccccc2)oc2cc(O)cc(O)c12 [compound 7, chrysin]
- IC50 [2]: 70.07 µg/mL (≈ 276 µM)

Structure (SMILES): O=C1c2c(O)cc(O)cc2O[C@H](c2cc(O)c(O)c(O)c2)[C@H]1O [compound 8, dihydromyricetin]
- Ka ([1]; n = 1.0572): 57637 L/mol
- IC50 [2]: 85.95 µg/mL (≈ 268 µM)

Structure (SMILES): O=C(/C=C/c1ccc(O)cc1)c1ccccc1 [compound 9, 4-hydroxychalcone]
- IC50 [2]: 123.04 µg/mL (≈ 549 µM)

Structure (SMILES): O=C(/C=C/c1ccccc1)c1ccc(O)cc1 [compound 10, 4′-hydroxychalcone]
- IC50 [2]: 199.10 µg/mL (≈ 888 µM)

Structure (SMILES): COc1ccc([C@@H]2CC(=O)c3c(O)cc(O)cc3O2)cc1O [compound 11, hesperetin]
- IC50 [2]: 286.60 µg/mL (≈ 948 µM)

Structure (SMILES): C[C@@H]1O[C@@H](O[C@H]2[C@H](Oc3cc(O)c4c(c3)O[C@H](c3ccc(O)cc3)CC4=O)O[C@H](CO)[C@@H](O)[C@@H]2O)[C@H](O)[C@H](O)[C@H]1O [compound 12, naringin]
- IC50 [2]: > 500 µg/mL

Structure (SMILES): COc1ccc([C@@H]2CC(=O)c3c(O)cc(O[C@@H]4O[C@H](CO[C@@H]5O[C@@H](C)[C@H](O)[C@@H](O)[C@H]5O)[C@@H](O)[C@H](O)[C@H]4O)cc3O2)cc1O [compound 13, hesperidin]
- IC50 [2]: > 500 µg/mL

Structure (SMILES): O=C(O)[C@H]1O[C@@H](Oc2cc3oc(-c4ccccc4)cc(=O)c3c(O)c2O)[C@H](O)[C@@H](O)[C@@H]1O [compound 14, baicalin]
- IC50 [2]: > 500 µg/mL

From publication PMC6770089, “Interaction Mechanism of Flavonoids and α-Glucosidase: Experimental and Molecular Modelling Studies” (Foods, 2019)
